The text below walks through data of patent publication US11578078B2, “Heterocyclic RIP1 inhibitory compounds” (Rigel Pharmaceuticals, Inc., priority 2019, dated 2023).

This series can be described thus: in vivo pharmacokinetics, plasma and brain exposure. Also on record: species or system rodents.

On to `CN1C(=O)[C@@H](NC(=O)c2nn(Cc3ccccc3)cc2F)COc2ccc(N3CCC4(CCOCC4)C3)cc21` [Compound I-1, (S)-1-benzyl-4-fluoro-N-(5-methyl-4-oxo-7-(8-oxa-2-azaspiro[4.5]decan-2-yl)-2,3,4,5-tetrahydrobenzo[b][1,4]oxazepin-3-yl)-1H-pyrazole-3-carboxamide], for which the “PLASMA CI” value was determined as 16.4. The “Ratio (Brain/Plasma)” value (brain AUC0-6 / plasma AUC0-6) came out at 0.46.

As to `CN1C(=O)[C@@H](NC(=O)c2nn(Cc3ccccc3)cc2F)COc2ccc(N3CC4(CCOCC4)C3)cc21` [Compound I-2, (S)-1-benzyl-4-fluoro-N-(5-methyl-4-oxo-7-(7-oxa-2-azaspiro[3.5]nonan-2-yl)-2,3,4,5-tetrahydrobenzo[b][1,4]oxazepin-3-yl)-1H-pyrazole-3-carboxamide], the “PLASMA CI” value is 57.7. Further, where the note is “brain”, the “BRAIN AUC0-6” value was determined as 157. Moreover, the Kp (rodents, brain AUC0-6 / plasma AUC0-6, read-out: Ratio (Brain/Plasma)) was determined as 0.56.

As for `CN1C(=O)[C@@H](NC(=O)n2cc(Cc3ccc(F)cc3)cn2)COc2ccc(N3CC4(CCOCC4)C3)cc21` [Compound I-3, (S)-4-(4-fluorobenzyl)-N-(5-methyl-4-oxo-7-(7-oxa-2-azaspiro[3.5]nonan-2-yl)-2,3,4,5-tetrahydrobenzo[b][1,4]oxazepin-3-yl)-1H-pyrazole-1-carboxamide], the “PLASMA CI” value was 19.0. For the setting “brain AUC0-6 / plasma AUC0-6”, the “Ratio (Brain/Plasma)” value came to 0.93.
